Legend:
Type in all cases: physicochemical
[1] = Low energy screen (slurry of form B in solvents, PXRD analysis); conditions: slurried for 2 weeks in various solvents (incl. dimethylacetamide, N-methyl-Pyrrolidine, pyridine) at 4° C., room temperature (~22° C.) and 40° C.; analysis after 2 weeks and 4 months
Experimental: A low energy screen was carried using N-[3-tert-butyl-1-(3-chloro-4-hydroxyphenyl)-1H-pyrazol-5-yl]-N′-{2-[(3-{2-[(2-hydroxyethyl)sulfanyl]phenyl}[1,2,4]triazolo[4,3-a]pyridin-6-yl)sulfanyl]benzyl}urea form B to investigate whether it is the lowest energy form of the compound. Samples of form B were slurried for 2 weeks in various solvents at 4° C., room temperature (˜22° C.) and 40° C. Analysis of wet and dried slurries was carried out at after 2 weeks and 4 months using PXRD.

[2] = Hydrate screen (slurry of form B in aqueous pyridine); conditions: slurried 2 weeks at 4° C., room temperature (~22° C.) and 40° C. in aqueous pyridine containing 50%, 75% and 90% water
Experimental: A hydrate screen was conducted by slurrying samples of form B for 2 weeks at 4° C., room temperature (˜22° C.) and 40° C. in aqueous pyridine. The three solvent systems selected contained 50%, 75% and 90% water.

Hygroscopicity = experiment: Hygroscopicity
[3] = Micronisation by jet milling
[4] = Stability of blend with lactose monohydrate on storage; conditions: stored under aggressive conditions of heat and humidity

crystalline form after slurrying (PXRD of wet and dried slurries) [1]: remained as Form B
change in crystalline form [2]: No change in crystalline form
hydrated forms observed [2]: No hydrated forms were observed
hygroscopicity (Hygroscopicity): essentially non-hygroscopic
stability when blended with lactose monohydrate [4]: good stability
SMILES: CC(C)(C)c1cc(NC(=O)NCc2ccccc2Sc2ccc3nnc(-c4ccccc4SCCO)n3c2)n(-c2ccc(O)c(Cl)c2)n1 [form B, N-[3-tert-butyl-1-(3-chloro-4-hydroxyphenyl)-1H-pyrazol-5-yl]-N′-{2-[(3-{2-[(2-hydroxyethyl)sulfanyl]phenyl}[1,2,4]triazolo[4,3-a]pyridin-6-yl)sulfanyl]benzyl}urea]
change in crystalline form on micronisation [3]: without inducing any change in crystalline form
